Reference: publication PMC10810714, “Antiretroviral Drug Exposure and Response in Obese and Morbidly Obese People With Human Immunodeficiency Virus (HIV): A Study Combining Modelling and Swiss HIV Cohort Data” (Clinical Infectious Diseases: An Official Publication of …, 2023)
Read-outs that look alike come from different tables or passages of the source.

Assays:
[1] = Observed pharmacokinetics of antiretrovirals in nonobese and obese individuals (SHCS therapeutic drug monitoring data and literature studies, noncompartmental analysis); conditions: for AUC(0-t) / Cmax / half-life: human, plasma, po, nonobese individuals; for AUC(0-t): AUCt; for AUC(0-t) / Cmax: observed; for AUC(0-t) / Cmax / half-life / Cτ, observed, nonobese individuals: nonobese (BMI range per drug), GM; for half-life: t1/2, observed
Text: (§1) We took several steps to analyse the impact of obesity on the ARVs exposure and response. First, we implemented our in-house PBPK model with our recently published virtual White obese population to simulate the pharmacokinetics of ARVs in nonobese and obese individuals. Next, we verified the simulations against the TDM data collected during the follow-up visits of the SHCS (multiple drug levels per individual were allowed [more information on the SHCS in the homonymous section in the Supplementary Material]). We then applied the verified model to extrapolate the pharmacokinetics across different obesity classes. Finally, the clinical relevance of obesity-related changes on drug response was evaluated by analyzing HIV viral load and the corresponding TDM values in obese and nonobese individuals in the SHCS.
(§2) All ARV drug models, except for doravirine (Supplementary Table 1), were previously developed and verified to predict the pharmacokinetics in healthy and elderly PWH [6, 12]. […] The TDM data were excluded if the participant’s age was younger than 20 or older than 50 years to avoid the age-related confounding effect on the pharmacokinetics, if a nonstandard ARV dosage was used, and if concurrent medications with inhibitory or inducing effects were used. The pharmacokinetic parameters including peak plasma concentration (Cmax), area under the curve to time t (AUCt), and trough concentration (Cτ) were derived from the TDM data using noncompartmental analysis.
(§3) A literature search was also performed to identify pharmacokinetic studies with ARVs conducted in obese and nonobese individuals. Data on the study design, characteristics of the participants, and pharmacokinetic results were collected. […] Available concentration-time profiles were digitalized using GetData Graph Digitizer V.2.26. The virtual trials were conducted by matching the participants’ demographics (eg, age, proportion of females, and BMI) and the ARV dosing regimen (Supplementary Table 2). The models were considered verified if the simulations were within 2-fold of observed data.
The Swiss HIV Cohort Study (SHCS) is an ongoing, nationwide, multicenter, clinic-based prospective cohort study in Switzerland with continuous enrollment and follow-up (twice a year) of people with HIV (PWH). Socio-demographic, clinical and laboratory data are recorded in detail. […] The collection of therapeutic drug monitoring (TDM) data in the SHCS database was initiated in 1998. All available TDM data for each evaluated antiretroviral drug were extracted from the SHCS database representing 6210 and 575 data points for the verification of the simulations in non-obese and obese individuals, respectively.

HIV viral load = test: Drug response in obese versus nonobese participants in the SHCS (concentration below efficacy threshold and viral load >50 copies/mL)
Procedure: The viral load was analyzed in conjunction with the TDM data to evaluate whether a decrease in ARV exposure in obese PWH is associated with a viral load of more than 50 copies/mL (the viral load measured on the date of the TDM assessment was considered for this evaluation).

[2] = PBPK model virtual trials matched to the observed studies (model verification, nonobese vs obese); set-up: species or system human; conditions: for AUCt, Ratio Predicted/Observed, Nonobese / Cmax, Ratio Predicted/Observed, Nonobese / Cτ, Ratio Predicted/Observed, Nonobese / t1/2, Ratio Predicted/Observed, Nonobese: nonobese individuals; for Predictions within x-fold of observed clinical data: pharmacokinetic parameters in obese and nonobese individuals, 1.25-fold 'for the most part'
Text: as §1, §2, §3

[3] = Black African PWH, median BMI 25.3 vs 32.8 kg/m^2; cited from earlier work
[4] = cited from earlier work; for AUCt, observed, nonobese individuals / Cmax, observed, nonobese individuals / Cτ, observed, nonobese individuals / t1/2, observed, nonobese individuals: standard oral dose at steady state, GM (mean for etravirine, emtricitabine, tenofovir), literature studies only, ref Supplementary Table 2 [9-16, 21-24]
[5] = over 18 mo after switching from tenofovir disoproxil fumarate; cited from earlier work
[6] = standard oral dose at steady state, SHCS TDM data with or without literature data
[7] = BMI 18.5–30 kg/m^2, viral load above 50 copies/mL
[8] = BMI >30 kg/m^2, viral load above 50 copies/mL
[9] = obese (BMI >=30, range per drug), standard oral dose at steady state, GM (mean for etravirine), SHCS TDM data with or without literature data
[10] = obese BMI 36–46 kg/m^2, 245 mg QD, mean, literature study only

O=C(NCc1c(F)cc(F)cc1F)c1cn2c(c(O)c1=O)C(=O)N1[C@H]3CC[C@H](C3)O[C@@H]1C2 [Bictegravir, bictegravir]
AUC(0-t) [1, 6]: 85800 ng·h/mL
Cmax [1, 6]: 5240 ng/mL
half-life [1, 6]: 20.6 h
Cτ, observed, nonobese individuals [1, 6]: 2373 ng/mL
% PWH with concentration below efficacy threshold (HIV viral load; BMI 18.5–30 kg/m^2): 1.5%
% PWH with virological failure amongst those with concentration below efficacy threshold (HIV viral load; [7]): 0%
% PWH with concentration below efficacy threshold (HIV viral load; BMI >30 kg/m^2): 0%
% PWH with virological failure amongst those with concentration below efficacy threshold (HIV viral load; [8]): 0%
AUCt, Ratio Predicted/Observed, Nonobese [2]: 0.97
Cmax, Ratio Predicted/Observed, Nonobese [2]: 0.87
Cτ, Ratio Predicted/Observed, Nonobese [2]: 1.01
t1/2, Ratio Predicted/Observed, Nonobese [2]: 1.27
Predictions within x-fold of observed clinical data [2]: ≤ 1.5 fold

C[C@@H]1CCO[C@H]2Cn3cc(C(=O)NCc4ccc(F)cc4F)c(=O)c(O)c3C(=O)N12 [Dolutegravir, dolutegravir]
AUC(0-t) [1, 6]: 45400 ng·h/mL
Cmax [1, 6]: 3320 ng/mL
half-life [1, 6]: 12.6 h
Cτ, observed, nonobese individuals [1, 6]: 889 ng/mL
Cτ, observed, obese individuals [1, 9]: 940 ng/mL
% PWH with concentration below efficacy threshold (HIV viral load; BMI 18.5–30 kg/m^2): 2.1%
% PWH with virological failure amongst those with concentration below efficacy threshold (HIV viral load; [7]): 0.3%
% PWH with concentration below efficacy threshold (HIV viral load; BMI >30 kg/m^2): 2.6%
% PWH with virological failure amongst those with concentration below efficacy threshold (HIV viral load; [8]): 0%
Reduction in AUCt, obese vs nonobese [3]: 9%
Reduction in Cmax, obese vs nonobese [3]: 14%
Reduction in Cτ, obese vs nonobese [3]: 1%

O=C1Nc2ccc(Cl)cc2[C@@](C#CC2CC2)(C(F)(F)F)O1 [Efavirenz, efavirenz]
AUC(0-t) [1, 6]: 52200 ng·h/mL
Cmax [1, 6]: 3170 ng/mL
half-life [1, 6]: 20.2 h
Cτ, observed, nonobese individuals [1, 6]: 1751 ng/mL
Cτ, observed, obese individuals [1, 9]: 1512 ng/mL
% PWH with concentration below efficacy threshold (HIV viral load; BMI 18.5–30 kg/m^2): 2.3%
% PWH with virological failure amongst those with concentration below efficacy threshold (HIV viral load; [7]): 1.1%
% PWH with concentration below efficacy threshold (HIV viral load; BMI >30 kg/m^2): 5.2%
% PWH with virological failure amongst those with concentration below efficacy threshold (HIV viral load; [8]): 1.1%

Nc1nc(=O)n([C@@H]2CS[C@H](CO)O2)cc1F [Emtricitabine, emtricitabine]
AUCt, observed, nonobese individuals [4]: 9589.4 ng·h/mL
Cmax, observed, nonobese individuals [4]: 1640.2 ng/mL
Cτ, observed, nonobese individuals [4]: 67.1 ng/mL
t1/2, observed, nonobese individuals [4]: 9.4 h
AUCt, Ratio Predicted/Observed, Nonobese [2]: 1.10
Cmax, Ratio Predicted/Observed, Nonobese [2]: 0.99
Cτ, Ratio Predicted/Observed, Nonobese [2]: 1.35
t1/2, Ratio Predicted/Observed, Nonobese [2]: 1.86

Cc1cc(C#N)cc(C)c1Oc1nc(Nc2ccc(C#N)cc2)nc(N)c1Br [Etravirine, etravirine]
Cτ, observed, obese individuals [1, 9]: 313 ng/mL
% PWH with concentration below efficacy threshold (HIV viral load; BMI 18.5–30 kg/m^2): 32.1%
% PWH with virological failure amongst those with concentration below efficacy threshold (HIV viral load; [7]): 11.9%
% PWH with concentration below efficacy threshold (HIV viral load; BMI >30 kg/m^2): 10%
% PWH with virological failure amongst those with concentration below efficacy threshold (HIV viral load; [8]): 0%
AUCt, observed, nonobese individuals [4]: 7970 ng·h/mL
Cmax, observed, nonobese individuals [4]: 949 ng/mL
Cτ, observed, nonobese individuals [4]: 464 ng/mL

Cc1nnc(C(=O)NC(C)(C)c2nc(C(=O)NCc3ccc(F)cc3)c(O)c(=O)n2C)o1 [Raltegravir, raltegravir]
Cτ, observed, nonobese individuals [1, 6]: 142 ng/mL
Cτ, observed, obese individuals [1, 9]: 171 ng/mL
% PWH with concentration below efficacy threshold (HIV viral load; BMI 18.5–30 kg/m^2): 4%
% PWH with virological failure amongst those with concentration below efficacy threshold (HIV viral load; [7]): 1.6%
% PWH with concentration below efficacy threshold (HIV viral load; BMI >30 kg/m^2): 4.7%
% PWH with virological failure amongst those with concentration below efficacy threshold (HIV viral load; [8]): 0%

Cc1cc(/C=C/C#N)cc(C)c1Nc1ccnc(Nc2ccc(C#N)cc2)n1 [Rilpivirine, rilpivirine]
Cmax, observed, obese individuals [1, 9]: 147.7 ng/mL
Cτ, observed, obese individuals [1, 9]: 89.2 ng/mL
AUCt, Ratio Obese/Nonobese, Observed ([1]; observed data): 0.85
Cmax, Ratio Obese/Nonobese, Observed ([1]; observed data): 0.92
Cτ, Ratio Obese/Nonobese, Observed ([1]; observed data): 1.19
% PWH with concentration below efficacy threshold (HIV viral load; BMI 18.5–30 kg/m^2): 15%
% PWH with virological failure amongst those with concentration below efficacy threshold (HIV viral load; [7]): 1.9%
% PWH with concentration below efficacy threshold (HIV viral load; BMI >30 kg/m^2): 0%
% PWH with virological failure amongst those with concentration below efficacy threshold (HIV viral load; [8]): 0%
AUCt, observed, nonobese individuals [4]: 2333 ng·h/mL
Cmax, observed, nonobese individuals [4]: 159.7 ng/mL
Cτ, observed, nonobese individuals [4]: 75.2 ng/mL
t1/2, observed, nonobese individuals [4]: 47.2 h
AUCt, Ratio (Predicted Ratio Obese/Nonobese)/(Observed Ratio Obese/Nonobese) [2]: 1.16
Cmax, Ratio (Predicted Ratio Obese/Nonobese)/(Observed Ratio Obese/Nonobese) [2]: 1.09
Cτ, Ratio (Predicted Ratio Obese/Nonobese)/(Observed Ratio Obese/Nonobese) [2]: 0.87
AUCt, Ratio Predicted/Observed, Nonobese [2]: 1.05
Cmax, Ratio Predicted/Observed, Nonobese [2]: 0.93
Cτ, Ratio Predicted/Observed, Nonobese [2]: 0.96
t1/2, Ratio Predicted/Observed, Nonobese [2]: 0.65
AUCt, Ratio Predicted/Observed, Obese ([2]; obese individuals): 1.23
Cmax, Ratio Predicted/Observed, Obese ([2]; obese individuals): 1.00
Cτ, Ratio Predicted/Observed, Obese ([2]; obese individuals): 0.84
Predictions within x-fold of observed clinical data [2]: ≤ 1.25 fold

CC(C)c1nc(CN(C)C(=O)N[C@H](C(=O)N[C@@H](Cc2ccccc2)C[C@H](O)[C@H](Cc2ccccc2)NC(=O)OCc2cncs2)C(C)C)cs1 [Ritonavir, ritonavir]
AUC(0-t) [1, 6]: 5740 ng·h/mL
Cmax [1, 6]: 480 ng/mL
half-life [1, 6]: 5.4 h
Cτ, observed, nonobese individuals [1, 6]: 91.4 ng/mL
Cτ, observed, obese individuals [1, 9]: 71.3 ng/mL

C[C@H](Cn1cnc2c(N)ncnc21)OCP(=O)(O)O [Tenofovir, tenofovir]
AUCt, observed, nonobese individuals [4]: 2858.4 ng·h/mL
Cmax, observed, nonobese individuals [4]: 300.5 ng/mL
Cτ, observed, nonobese individuals [4]: 58.2 ng/mL
t1/2, observed, nonobese individuals [4]: 14.9 h
AUCt, observed, obese individuals [4, 10]: 2346 ng·h/mL
Cmax, observed, obese individuals [4, 10]: 263 ng/mL
Cτ, observed, obese individuals [4, 10]: 47 ng/mL
t1/2, observed, obese individuals [4, 10]: 13 h
AUCt, Ratio Predicted/Observed, Nonobese [2]: 1.06
Cmax, Ratio Predicted/Observed, Nonobese [2]: 1.00
Cτ, Ratio Predicted/Observed, Nonobese [2]: 1.11
t1/2, Ratio Predicted/Observed, Nonobese [2]: 1.15
AUCt, Ratio Predicted/Observed, Obese ([2]; obese individuals): 0.95
Cmax, Ratio Predicted/Observed, Obese ([2]; obese individuals): 0.83
Cτ, Ratio Predicted/Observed, Obese ([2]; obese individuals): 1.13
t1/2, Ratio Predicted/Observed, Obese ([2]; obese individuals): 1.75

CC(C)OC(=O)[C@H](C)N[P@](=O)(CO[C@H](C)Cn1cnc2c(N)ncnc21)Oc1ccccc1 [tenofovir alafenamide]
Increase in weight [5]: 1.7 kg

darunavir/ritonavir
% PWH with virological failure amongst those with concentration below efficacy threshold (HIV viral load; [7]): 1.6%
% PWH with virological failure amongst those with concentration below efficacy threshold (HIV viral load; [8]): 0%
